From patent US5677419A, “Cyclic vasoactive peptide analogs” (Hoffmann-La Roche Inc., priority 1994, dated 1997)
Where a SMILES comes first, the peptide text is derived from it. Bridges are numbered along the chain shown (N, C = ends). [ ]: non-standard residue; d: D form. Tyr(3-F) = N[C@@H](Cc1ccc(O)c(F)c1)C(=O)O; Tyr(3-OMe) = COc1cc(C[C@H](N)C(=O)O)ccc1O; Nle = CCCC[C@H](N)C(=O)O

What was measured:
[1] = tested on: guinea pig tracheal smooth muscle; assay: Tracheal relaxant activity of VIP analogs on isolated guinea pig tracheal rings; type: cell-based; conditions: cumulative concentration response, relaxation as % of maximum response to VIP (10^-6 M=100%), three tissues pooled, linear regression
How it was run: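 Male guinea pig tracheal rings under 1.5 g resting tension in Krebs at 37° C, 95% O2/5% CO2, isometric tension. Cumulative concentration-response curves; relaxation as % of response to 10^-6 M VIP added at end; three tissues pooled, EC50 by linear regression.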

guinea pigs = assay: In vivo bronchodilator activity by tracheal instillation against histamine challenge; parameters: species or system guinea pig; conditions: anesthetized male guinea pigs, inhibition of histamine (i.v.)-induced rise in tracheal pressure
How it was run: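 Urethane-anaesthetised male Hartley guinea pigs (400-600 g) received compound in water by intratracheal instillation, then were paralysed, ventilated and challenged with histamine […] i.v. Tracheal pressure change gave % inhibition (≥3 animals/group); ED50 from log dose-response; duration as time until inhibition fell to 40%.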

EC50 [1]	SMILES	Bronchodilator activity of VIP analogs in guinea pigs, ED50 (guinea pigs)
0.29 nM	CCCC[C@H](NC(=O)[C@H](CCC(N)=O)NC(=O)[C@H](CCCCN)NC(=O)[C@H](CCCNC(=N)N)NC(=O)[C@H](CC(C)C)NC(=O)[C@H](CCCCN)NC(=O)[C@@H](NC(=O)[C@H](Cc1ccc(O)cc1)NC(=O)[C@H](CC(N)=O)NC(=O)[C@H](CCC(=O)O)NC(=O)[C@@H](NC(=O)[C@H](Cc1ccccc1)NC(=O)[C@@H](NC(=O)[C@H](C)NC(=O)[C@H](CC(=O)O)NC(=O)[C@H](CO)NC(=O)[C@H](Cc1c[nH]cn1)NC(C)=O)C(C)C)[C@@H](C)O)[C@@H](C)O)C(=O)N[C@@H](C)C(=O)N[C@@H](C)C(=O)N[C@@H](CCCCN)C(=O)N[C@H]1CCCCNC(=O)C[C@@H](C(=O)N[C@@H](CC(C)C)C(=O)N[C@@H](CCCCN)C(=O)N[C@@H](CCCCN)C(N)=O)NC(=O)[C@H](CC(N)=O)NC(=O)[C@H](CC(C)C)NC(=O)[C@H](Cc2ccc(O)c(OC)c2)NC1=O [SEQ ID NO:57, Ac-[Glu^8,Lys^12,Nle^17,Ala^19,m-OCH3 -Tyr^22,Asp^25,Leu^26,Lys^27,28]-VIP cyclo (Lys^21 →Asp^25)] (Ac-HSDAVFTENYTKLRKQ[Nle]AAKK[Tyr(3-OMe)]LNDLKK-NH2; lactam 21-25)	0.019 μg
0.31 nM	CCCC[C@H](NC(=O)[C@H](CCC(N)=O)NC(=O)[C@H](CCCCN)NC(=O)[C@H](CCCNC(=N)N)NC(=O)[C@H](CC(C)C)NC(=O)[C@H](CCCCN)NC(=O)[C@@H](NC(=O)[C@H](Cc1ccc(O)cc1)NC(=O)[C@H](CC(N)=O)NC(=O)[C@H](CCC(=O)O)NC(=O)[C@@H](NC(=O)[C@H](Cc1ccccc1)NC(=O)[C@@H](NC(=O)[C@H](C)NC(=O)[C@H](CC(=O)O)NC(=O)[C@H](CO)NC(=O)[C@H](Cc1c[nH]cn1)NC(C)=O)C(C)C)[C@@H](C)O)[C@@H](C)O)C(=O)N[C@@H](C)C(=O)N[C@@H](C)C(=O)N[C@@H](CCCCN)C(=O)N[C@H]1CCCCNC(=O)C[C@@H](C(=O)N[C@@H](CC(C)C)C(=O)N[C@@H](CCCCN)C(=O)N[C@@H](CCCCN)C(N)=O)NC(=O)[C@H](CC(N)=O)NC(=O)[C@H](CC(C)C)NC(=O)[C@H](Cc2ccc(O)c(F)c2)NC1=O [SEQ ID NO:58, Ac-[Glu^8,Lys^12,Nle^17,Ala^19,m-F-L-Tyr^22,Asp^25,Leu^26,Lys^27,28]-VIP cyclo (Lys^21 →Asp^25)] (Ac-HSDAVFTENYTKLRKQ[Nle]AAKK[Tyr(3-F)]LNDLKK-NH2; lactam 21-25)	0.03 μg
1.1 nM	CCCC[C@H](NC(=O)[C@H](CCC(N)=O)NC(=O)[C@H](CCCCN)NC(=O)[C@H](CCCNC(=N)N)NC(=O)[C@H](CC(C)C)NC(=O)[C@H](CCCCN)NC(=O)[C@@H](NC(=O)[C@H](Cc1ccc(O)cc1)NC(=O)[C@H](CC(N)=O)NC(=O)[C@H](C)NC(=O)[C@@H](NC(=O)[C@H](Cc1ccccc1)NC(=O)[C@@H](NC(=O)[C@H](C)NC(=O)[C@H](CC(=O)O)NC(=O)[C@H](CO)NC(=O)[C@H](Cc1c[nH]cn1)NC(C)=O)C(C)C)[C@@H](C)O)[C@@H](C)O)C(=O)N[C@@H](C)C(=O)N[C@@H](C)C(=O)N[C@@H](CCCCN)C(=O)N[C@H]1CCCCNC(=O)C[C@@H](C(=O)N[C@@H](CC(C)C)C(=O)N[C@@H](CCCCN)C(=O)N[C@@H](CCCCN)C(N)=O)NC(=O)[C@H](C)NC(=O)[C@H](CC(C)C)NC(=O)[C@H](Cc2ccc(O)cc2)NC1=O [SEQ ID NO:59, Ac-[Ala^8,Lys^12,Nle^17,Ala^19,Ala^24,Asp^25,Leu^26,Lys^27,28]-VIP cyclo (Lys^21 →Asp^25)] (Ac-HSDAVFTANYTKLRKQ[Nle]AAKKYLADLKK-NH2; lactam 21-25)	0.17 μg
